Key:
Type in all cases: in vitro ADME
CYP3A4 = molecular target: T1, CYP3A4 (Homo sapiens, UniProt P08684); assay: Enzyme kinetics of metabolite formation in cDNA-expressed CYP3A4 supersomes
T1 construct: purchased Corning Life Sciences
Method: (§1) To calculate the enzyme kinetic parameters for the M1 and M2 formation from DWP16001, DWP16001 (final concentrations, 1–200 μM) was incubated with NADPH-generating system, pooled human liver microsomes (0.25 mg/mL), or human cDNA-expressed CYP3A4 or CYP2C19 supersomes (10 pmol) at 37 °C for 30 min in triplicate. Reactions were stopped by addition of 400 μL of ice-cold ketoconazole (200 ng/mL) in acetonitrile. Following vortex-mixing and centrifugation (15,000× g, 8 min, 4 °C), 75 μL aliquots of the supernatant were diluted with 75 µL of 30% acetonitrile; 5 μL aliquots were injected into an LC−MS/MS system.
(§2) Apparent kinetic parameters (Km, Vmax and n) for the formation of M1, M2, and M3 from DWP16001 by human liver microsomes, CYP3A4, or CYP2C19 were calculated as follows: the unweighted formation rates of M1, M2, and M3 over a range of DWP16001 concentrations were fitted to the Hill equation model [V = Vmax × S^n/(Km^n + S^n)] or the single enzyme model [V = Vmax × S/(Km + S)] using Enzyme Kinetics software (version 1.1 SPSS Inc., Chicago, IL, USA). In the above equations, V means the reaction velocity of the formation of M1, M2, and M3 at given concentration [S] of DWP16001, Vmax means the maximum reaction velocity, n means the Hill constant, and Km means the DWP16001 concentration at which the reaction velocity is 50% of Vmax.

CYP2C19 [1] = molecular target: T2, CYP2C19 (Homo sapiens, UniProt P33261); assay: CYP screening, recombinant CYP2C19
T2 construct: purchased Corning Life Sciences
Method: DWP16001, M1, or M2 was incubated with 11 human cDNA-expressed CYP enzymes (1A1, 1A2, 2A6, 2B6, 2C8, 2C9, 2C19, 2D6, 2E1, 3A4, and 3A5) to identify the CYP enzymes involved in the metabolism of DWP16001. Reaction mixtures of 95 µL containing DWP16001 (final concentration: 5 µM), M1 or M2 (final concentration: 10 µM), and CYPs (final amount: 10 pmol) were prepared in 0.1 M potassium phosphate buffer (pH 7.4). The reaction was started by adding 5 µL of NADPH-generating system; the mixtures were incubated for 30 min at 37 °C in triplicate. Reactions were stopped by the addition of 400 µL of ice-cold ketoconazole (internal standard, 200 ng/mL) in ice-cold acetonitrile. Samples were centrifuged at 15,000× g for 8 min at 4 °C. Seventy-five microliter aliquots of the supernatants were diluted with 75 µL of deionized water and analyzed using an LC–MS/MS system.

13 human UGT enzymes = assay: UGT screening, whole panel; settings: incubation of DWP16001 with 13 human UGT enzymes, UDPGA
Method: (§3) To screen for UGT enzymes responsible for glucuronidation of DWP16001, 100 μL of reaction mixtures containing 13 human cDNA-expressed UGT enzymes (1A1, 1A3, 1A4, 1A6, 1A7, 1A8, 1A9, 1A10, 2B4, 2B7, 2B10, 2B15, and 2B17) at 0.1 mg protein/mL, 5 mM UDPGA, 0.025 mg/mL alamethicin, and 25 μM DWP16001 or M1 in 50 mM Tris buffer (pH 7.4) were incubated at 37 °C for 30 min in triplicate. Reactions were stopped by adding 100 μL of ketoconazole (internal standard, 200 ng/mL) in acetonitrile, followed by vortex-mixing and centrifugation (15,000× g, 8 min, 4 °C). The supernatant (75 μL) was diluted with equal volume of 30% acetonitrile and aliquots (5 μL) were injected into an LC-MS/MS system.

CYP2C19 [2] = molecular target: T2, CYP2C19; assay: Enzyme kinetics of metabolite formation in cDNA-expressed CYP2C19 supersomes
Method: as §1, §2

UGT2B7 = molecular target: T3, UGT2B7 (Homo sapiens, UniProt P16662); assay: UGT screening, cDNA-expressed UGT2B7
T3 construct: purchased Corning Life Sciences
T3 sequence (P16662 24-529): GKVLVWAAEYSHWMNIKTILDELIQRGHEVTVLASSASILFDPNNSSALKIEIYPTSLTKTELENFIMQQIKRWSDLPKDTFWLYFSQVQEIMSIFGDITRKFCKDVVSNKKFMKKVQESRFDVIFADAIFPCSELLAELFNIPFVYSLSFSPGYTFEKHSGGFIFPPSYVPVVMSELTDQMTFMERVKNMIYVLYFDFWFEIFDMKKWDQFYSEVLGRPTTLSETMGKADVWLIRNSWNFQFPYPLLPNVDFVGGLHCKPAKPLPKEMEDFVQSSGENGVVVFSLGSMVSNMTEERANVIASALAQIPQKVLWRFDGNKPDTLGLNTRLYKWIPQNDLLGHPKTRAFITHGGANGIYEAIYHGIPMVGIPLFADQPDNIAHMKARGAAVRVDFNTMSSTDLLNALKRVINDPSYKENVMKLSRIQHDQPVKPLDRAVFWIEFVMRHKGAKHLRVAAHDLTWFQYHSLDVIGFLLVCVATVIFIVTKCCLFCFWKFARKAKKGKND
Method: as §3

[3] = CYP2C19 supersomes, kinetic model fitted

T2 sequence (P33261 whole entry): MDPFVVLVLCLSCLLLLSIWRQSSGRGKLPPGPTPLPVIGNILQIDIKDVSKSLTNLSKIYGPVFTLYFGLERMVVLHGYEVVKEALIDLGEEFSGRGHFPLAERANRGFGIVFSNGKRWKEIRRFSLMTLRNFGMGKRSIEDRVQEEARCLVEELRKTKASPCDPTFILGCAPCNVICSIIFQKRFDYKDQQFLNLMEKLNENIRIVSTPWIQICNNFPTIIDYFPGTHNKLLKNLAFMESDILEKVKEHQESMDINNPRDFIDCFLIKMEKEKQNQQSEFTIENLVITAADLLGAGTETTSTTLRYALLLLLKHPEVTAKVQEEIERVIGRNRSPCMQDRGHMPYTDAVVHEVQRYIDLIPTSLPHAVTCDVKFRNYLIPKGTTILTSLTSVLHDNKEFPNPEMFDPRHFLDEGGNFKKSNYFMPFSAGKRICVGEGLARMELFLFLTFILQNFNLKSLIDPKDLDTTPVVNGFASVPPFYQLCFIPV
T1 sequence (P08684 whole entry): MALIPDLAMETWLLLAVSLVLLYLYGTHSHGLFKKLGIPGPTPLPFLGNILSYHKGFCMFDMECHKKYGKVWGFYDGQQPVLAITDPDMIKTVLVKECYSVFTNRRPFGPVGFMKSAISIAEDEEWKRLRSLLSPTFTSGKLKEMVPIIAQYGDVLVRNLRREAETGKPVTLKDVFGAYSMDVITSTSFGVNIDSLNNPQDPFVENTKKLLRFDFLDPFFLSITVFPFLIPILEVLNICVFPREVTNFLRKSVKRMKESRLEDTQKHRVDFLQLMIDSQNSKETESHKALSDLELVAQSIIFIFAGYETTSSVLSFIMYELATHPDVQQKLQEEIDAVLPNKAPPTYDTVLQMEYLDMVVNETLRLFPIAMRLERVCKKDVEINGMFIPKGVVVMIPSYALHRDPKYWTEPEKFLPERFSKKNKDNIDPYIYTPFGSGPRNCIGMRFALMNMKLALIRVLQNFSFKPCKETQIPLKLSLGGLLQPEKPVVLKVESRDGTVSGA

M3 formation kinetic model (CYP3A4): single enzyme kinetics
M1 Formation Mode (CYP3A4; kinetic model fitted): Hill
M2 Formation Mode (CYP3A4; kinetic model fitted): Hill
Substrate of CYP2C19 (CYP2C19 [1]): substrate
Formation of U3 from DWP16001 (13 human UGT enzymes): not formed
M3 formation from DWP16001 in enzyme kinetic analysis (CYP2C19 [2]; CYP2C19): not detected
M1 Formation Mode (CYP2C19 [2]; [3]): Single enzyme
M2 Formation Mode (CYP2C19 [2]; [3]): Hill
Substrate of UGT2B7 (UGT2B7): substrate
Compound: OC[C@H]1O[C@@H](c2cc(Cc3ccc(C4CC4)cc3)c(Cl)c3c2CCO3)[C@H](O)[C@@H](O)[C@@H]1O [DWP16001, (2S,3R,4R,5S,6R)-2-(7-chloro-6-(4-cyclopropylbenzyl)-2,3-dihydrobenzofuran-4-yl)-6-(hydroxymethyl)tetrahydro-2H-pyran-3,4,5-triol]

From paper PMC7558535, “In Vitro Metabolism of DWP16001, a Novel Sodium-Glucose Cotransporter 2 Inhibitor, in Human and Animal Hepatocytes” (Pharmaceutics, 2020)
